From BindingDB's records for doi:10.1016/0960-894X(95)00530-0 (1995)

Target: Gastrin/cholecystokinin type B receptor (Cavia porcellus)
Test: Displacement of [125I]-BH CCK-8S from Cholecystokinin type B receptor in guinea pig cortex

Row | IC50 [µM] | SMILES
1 | 0.88 | Cc1cccc(NC(=O)NC2N=C(N3CCNCC3)c3ccccc3N(C)C2=O)c1 (centres undefined) [1-(1-Methyl-2-oxo-5-piperazin-1-yl-2,3-dihydro-1H-benzo[e][1,4]diazepin-3-yl)-3-m-tolyl-urea]
2 | 0.012 | CCCN1C(=O)C(NC(=O)Nc2cccc(C(F)(F)F)c2)N=C(N2CCN(C)CC2)c2ccccc21 (centres undefined) [1-[5-(4-Methyl-piperazin-1-yl)-2-oxo-1-propyl-2,3-dihydro-1H-benzo[e][1,4]diazepin-3-yl]-3-(3-trifluoromethyl-phenyl)-urea]
3 | > 3 | Cc1cccc(NC(=O)NC2N=C(N3CCN(C(=O)OC(C)(C)C)CC3)c3ccccc3N(C)C2=O)c1 (centres undefined) [4-[1-Methyl-2-oxo-3-(3-m-tolyl-ureido)-2,3-dihydro-1H-benzo[e][1,4]diazepin-5-yl]-piperazine-1-carboxylic acid tert-butyl ester]

Row | SMILES | IC50 [µM]
4 | Cc1cccc(NC(=O)N[C@@H]2N=C(c3ccccc3)c3ccccc3N3C[C@H](C)N=C23)c1 [1-((2S,4R)-2-Methyl-6-phenyl-2,4-dihydro-1H-3,5,10b-triaza-benzo[e]azulen-4-yl)-3-m-tolyl-urea] | 0.0018
